From patent US9090600B2, “Fungicidal 4-substituted-3-{phenyl[(heterocyclylmethoxy)imino]methyl}-1,2,4-oxadizol-5(4H)-one derivatives” (BAYER INTELLECTUAL PROPERTY GMBH, priority 2011, dated 2015)
Marks after values point to notes of the source that are not given here.

Legend:
[1] = pH 2.7
Phytophthora infestans = type: in vivo; conditions: tomato plants, spray, 500 ppm, grading 5 days after contamination

Compound	LogP [1]	Eff. % (Phytophthora infestans) [%]
Cn1c(C(=NOCc2cccc(NC(=O)CCCC(C)(C)C)n2)c2ccccc2)noc1=O [Example 247]	4.53 [a]	99
Cn1c(/C(=N\OCc2cccc(NC(=O)C3CCCC3)n2)c2ccccc2)noc1=O [Example 388]	3.62 [a]	100
Cc1ccc(C(=O)Nc2cccc(CO/N=C(/c3ccccc3)c3noc(=O)n3C)n2)o1 [Example 345]	3.46 [a]	99
CC(C)C(=O)Nc1cccc(CO/N=C(/c2ccccc2)c2noc(=O)n2C)n1 [Example 177]	3.11 [a]	100
Cn1c(/C(=N\OCc2cccc(NC(=O)C3CCCCC3)n2)c2ccccc2)noc1=O [Example 147]	3.92 [a]	100
Cn1c(/C(=N\OCc2cccc(NC(=O)C3(C)CC3)n2)c2ccccc2)noc1=O [Example 137]	3.31 [a]	98
Cn1c(C(=NOCc2cccc(NC(=O)OC(C)(C)C)n2)c2ccc(F)cc2)noc1=O [Example 246]	4.06 [a]	100
CCCC(C)C(=O)Nc1cccc(CO/N=C(/c2cccc(OC)c2)c2noc(=O)n2C)n1 (stereo not drawn) [Example 328]	3.87 [a]	75
CCCCC(=O)Nc1cccc(CO/N=C(/c2cccc(OC)c2)c2noc(=O)n2C)n1 [Example 358]	3.55 [a]	100
CC(Oc1ccccc1)C(=O)Nc1cccc(CO/N=C(/c2ccccc2)c2noc(=O)n2C)n1 (stereo not drawn) [Example 232]	3.96 [a]	100
Cn1c(/C(=N\OCc2cccc(NC(=O)CC34CC5CC(CC(C5)C3)C4)n2)c2ccccc2)noc1=O [Example 146]	5.08 [a]	93
CC(C)=CCCC(C)CC(=O)Nc1cccc(CO/N=C(/c2ccccc2)c2noc(=O)n2C)n1 (stereo not drawn) [Example 235]	4.88 [a]	100
Cn1c(/C(=N\OCc2cccc(NC(=O)OCC(C)(C)C)n2)c2ccccc2)noc1=O [Example 372]	4.36 [a]	100
CCC(C)C(=O)Nc1cccc(CO/N=C(/c2ccccc2)c2noc(=O)n2C)n1 (stereo not drawn) [Example 132]	3.41 [a]	97
CCCCC(C)OC(=O)Nc1cccc(CO/N=C(/c2ccccc2)c2noc(=O)n2C)n1 (stereo not drawn) [Example 200]	4.78 [a]	98
CC(Oc1cccc(Br)c1)C(=O)Nc1nc(CO/N=C(/c2ccccc2)c2noc(=O)n2C)cs1 (stereo not drawn) [Example 155]	4.17 [a]	92
CC(=O)OC(C)(C)C(=O)Nc1cccc(CO/N=C(/c2ccccc2)c2noc(=O)n2C)n1 [Example 367]	3.15 [a]	100
Cc1ccccc1CCOC(=O)Nc1cccc(CO/N=C(/c2ccccc2)c2noc(=O)n2C)n1 [Example 133]	4.51 [a]	88
Cn1c(C(=NOCc2csc(NC(=O)c3cc(F)cc(F)c3)n2)c2ccccc2)noc1=O [Example 263]	3.8 [a]	78
CCCCCCCC(=O)Nc1cccc(CO/N=C(/c2ccccc2)c2noc(=O)n2C)n1 [Example 32]	4.71 [a]	100
Cc1ccc(CC(=O)Nc2cccc(CO/N=C(/c3ccccc3)c3noc(=O)n3C)n2)cc1 [Example 375]	3.85 [a]	97
CC(Oc1ccccc1Cl)C(=O)Nc1nc(CO/N=C(/c2ccccc2)c2noc(=O)n2C)cs1 (racemic) [Example 366]	4.07 [a]	94
Cn1c(/C(=N\OCc2cccc(NC(=O)OCC(C)(C)c3ccccc3)n2)c2ccccc2)noc1=O [Example 79]	4.71 [a]	88

Compound	LogP [1]	Eff. % (Phytophthora infestans) [%]
Cn1c(/C(=N\OCc2cccc(NC(=O)c3ccccc3I)n2)c2ccccc2)noc1=O [Example 331]	3.76 [a]	98
CCn1c(/C(=N\OCc2cccc(NC(=O)OCc3ccccc3)n2)c2ccccc2)noc1=O [Example 201]	4.24 [a]	100
Cn1c(/C(=N\OCc2cccc(NC(=O)OCCc3ccccc3Cl)n2)c2ccccc2)noc1=O [Example 106]	4.56 [a]	75
Cn1c(/C(=N\OCc2cccc(NC(=O)OCCc3ccc(F)cc3)n2)c2ccccc2)noc1=O [Example 89]	4.19 [a]	99
Cc1ccc(CCOC(=O)Nc2cccc(CO/N=C(/c3ccccc3)c3noc(=O)n3C)n2)cc1 [Example 369]	4.53 [a]	70
Cn1c(/C(=N\OCc2cccc(NC(=O)c3ccccc3Br)n2)c2ccccc2)noc1=O [Example 243]	3.67 [a]	99
COC(C(=O)Nc1cccc(CO/N=C(/c2ccccc2)c2noc(=O)n2C)n1)c1ccccc1 (stereo not drawn) [Example 218]	3.85 [a]	80
CCCCCC(C)OC(=O)Nc1cccc(CO/N=C(/c2ccccc2)c2noc(=O)n2C)n1 (stereo not drawn) [Example 285]	5.19 [a]	88
Cc1cccc(CCOC(=O)Nc2cccc(CO/N=C(/c3ccccc3)c3noc(=O)n3C)n2)c1 [Example 210]	4.53 [a]	75
CCn1c(/C(=N\OCc2cccc(NC(=O)CCc3ccccc3)n2)c2ccccc2)noc1=O [Example 403]	4.01 [a]	100
Cn1c(/C(=N\OCc2cccc(NC(=O)c3ccco3)n2)c2ccccc2)noc1=O [Example 134]	3.13 [a]	99
CCC(CC)COC(=O)Nc1cccc(CO/N=C(/c2ccccc2)c2noc(=O)n2C)n1 [Example 192]	4.78 [a]	100
Cn1c(/C(=N\OCc2cccc(NC(=O)c3cccc(Oc4ccccc4)c3)n2)c2ccccc2)noc1=O [Example 329]	4.61 [a]	93
Cn1c(/C(=N\OCc2cccc(NC(=O)OCCC#N)n2)c2ccccc2)noc1=O [Example 288]	2.78 [a]	97
COc1ccccc1OC(C)C(=O)Nc1nc(CO/N=C(/c2ccccc2)c2noc(=O)n2C)cs1 (stereo not drawn) [Example 219]	3.89 [a]	85
CCC(C)(C)C(=O)Nc1cccc(CO/N=C(/c2ccccc2)c2noc(=O)n2C)n1 [Example 221]	3.8 [a]	100
Cn1c(/C(=N\OCc2cccc(NC(=O)CCc3ccc(F)cc3)n2)c2ccccc2)noc1=O [Example 301]	3.81 [a]	100
Cn1c(/C(=N\OCc2cccc(NC(=O)c3ccccc3Cl)n2)c2ccccc2)noc1=O [Example 178]	3.64 [a]	99
COc1cccc(C(=NOCc2cccc(NC(=O)OCc3ccccc3)n2)c2noc(=O)n2C)c1 [Example 290]	4.04 [a]	75
COc1cccc(C(=NOCc2cccc(NC(=O)C(C)(C)C)n2)c2noc(=O)n2C)c1 [Example 407]	3.55 [a]	95
CCC(C)CCOC(=O)Nc1cccc(CO/N=C(/c2ccccc2)c2noc(=O)n2C)n1 (stereo not drawn) [Example 56]	4.78 [a]	100
Cn1c(C(=NOCc2cccc(NC(=O)Cc3cccs3)n2)c2ccccc2)noc1=O [Example 264]	3.42 [a]	94
